Assay results as given in US7902369B2, “Diaryl-substituted five-membered heterocycle derivative” (Banyu Pharmaceutical Co., Ltd., priority 2004, dated 2011).

How the values were obtained:
[1] = tested on: male ICR(CD-1) mouse; test: Suppression of mouse spontaneous movement level increased by methamphetamine; type: in vivo; settings: po, 1 h, 3 mg/kg orally 30 min before 2 mg/kg methamphetamine, movement level during 60 min
Procedure: With the use of male ICR(CD-1) mouse (20-40 g), movement level was measured with the use of movement level-measuring device detecting animal migration by infrared radiation sensor (Neuroscience). Compounds or appropriate solvents were administered to mice, and after administrating normal saline solution or 2 mg/kg of methamphetamine 30 min later, the movement level during 60 min from after the administration was measured. By making the difference between the movement level of the methamphetamine-administered group and that of the solvents-administered group during measuring period as 100%, the movement level of test compound-administered group was shown by inhibition % for estimation.

[2] = biological target: T1, human metabotropic glutamate receptor 1a (mGluR1a) (Homo sapiens, UniProt Q13255); test: mGluR1 inhibiting effect: intracellular calcium concentration (FLIPR) in mGluR1a-expressing CHO cells; type: cell-based; settings: suppression of calcium increase by 10 μM glutamic acid, test compound added 5 min before agonist
T1 construct: expressed in transfected cells
T1 sequence (Q13255 19-1194): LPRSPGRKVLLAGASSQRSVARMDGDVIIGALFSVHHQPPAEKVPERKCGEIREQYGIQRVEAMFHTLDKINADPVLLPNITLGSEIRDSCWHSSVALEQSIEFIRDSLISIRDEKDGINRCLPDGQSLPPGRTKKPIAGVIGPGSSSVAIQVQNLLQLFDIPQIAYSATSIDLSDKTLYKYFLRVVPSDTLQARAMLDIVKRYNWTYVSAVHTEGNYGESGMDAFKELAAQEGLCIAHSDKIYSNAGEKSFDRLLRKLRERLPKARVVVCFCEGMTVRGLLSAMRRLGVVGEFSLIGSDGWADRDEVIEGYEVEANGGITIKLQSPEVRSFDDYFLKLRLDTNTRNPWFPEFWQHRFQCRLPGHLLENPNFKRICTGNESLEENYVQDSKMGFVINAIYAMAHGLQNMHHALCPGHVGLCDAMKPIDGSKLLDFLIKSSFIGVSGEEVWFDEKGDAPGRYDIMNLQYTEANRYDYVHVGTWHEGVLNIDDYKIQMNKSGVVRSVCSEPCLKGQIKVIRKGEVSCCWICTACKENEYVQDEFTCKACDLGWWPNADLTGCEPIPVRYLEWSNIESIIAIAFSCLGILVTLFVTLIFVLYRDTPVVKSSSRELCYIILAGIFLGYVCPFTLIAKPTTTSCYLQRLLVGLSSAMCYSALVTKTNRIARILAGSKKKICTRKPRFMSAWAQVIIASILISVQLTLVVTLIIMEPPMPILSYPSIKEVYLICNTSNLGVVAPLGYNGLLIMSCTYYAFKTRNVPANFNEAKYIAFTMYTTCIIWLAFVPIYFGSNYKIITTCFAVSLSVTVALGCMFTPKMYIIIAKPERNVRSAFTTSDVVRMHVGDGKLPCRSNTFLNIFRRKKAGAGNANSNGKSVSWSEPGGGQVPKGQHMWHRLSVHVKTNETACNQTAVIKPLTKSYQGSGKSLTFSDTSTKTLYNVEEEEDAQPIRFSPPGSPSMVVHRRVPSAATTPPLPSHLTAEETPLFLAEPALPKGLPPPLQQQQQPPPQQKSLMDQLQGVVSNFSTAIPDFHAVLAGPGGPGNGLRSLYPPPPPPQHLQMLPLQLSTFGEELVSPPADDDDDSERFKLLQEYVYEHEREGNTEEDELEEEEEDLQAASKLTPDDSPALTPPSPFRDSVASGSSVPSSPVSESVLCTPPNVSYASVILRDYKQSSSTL
Procedure: MGlu1 inhibiting effect was measured by using the compound of the present invention.
With the use of Lipofectamine (Gibco BRL), cDNA of human metabotropic glutamate receptor 1a (mGluR1a) were transfected to CHO cells, to obtain cells expressing mGluR1a in a stable manner. CHO cells which expressed mGluR1a were cultured in DMEM medium containing 10% dialysis fetal bovine serum, 1% proline, 100 units/ml of penicillin, 0.1 mg of streptomycin sulfate and […] glutamine.
4 μM of Fluo-3 was incubated to mGluR1a-expressing CHO cells plated with 50000 cells per 1 well of 96-well black plate (Packard, Viewplate) the day before the measurement, in a CO2 incubator for 1 hour. The cells were washed 4 times with HBSS solution containing 20 mM HEPES and 25 mM probenecid, and the intracellular calcium concentration was measured with the use of Fluorescence Imaging Plate Reader (FLIPR; Mollecular Device). The test compounds and glutamic acid were adjusted with HBSS solution containing 20 mM HEPES and 2.5 mM Probenecid. The test compounds were added 5 min before agonist stimulation, and 10 μM of glutamic acid was used as agonist.
The calcium increased with 10 μM of glutamic acid was suppressed dose-dependently.

[3] = tested on: rats; test: Suppression of the reduction of prepulse inhibition (PPI) by methamphetamine; type: in vivo; settings: orally 30 min before 3 mg/kg methamphetamine; rat startle reaction, 120 dB pulse with prepulse
Procedure: Systems tested for prepulse inhibition which can detect specifically antipsychotic effect were also investigated. By using startle reflex measuring device (San Diego Instruments) which can dectect movement of rats, startle reaction to 120 dB-sound stimulation (pulse stimulation) combined with 63, 66 and 72 dB-sound stimulation prior to pulse stimulation (prepulse) was measured in the presence of 60 dB-background sound. The compounds of the present invention or appropriate solvents were administered to rats, and normal saline solution or 3 mg/kg of methamphetamine was administered 30 min later, to measure startle reation. Startle reactions to pulse stimulation and to stimulation with prepulse were named A and B respectively, and the prepulse inhibition (herein referred to as PPI) level was calculated with the following formula. Calculating formula of PPI:PPI(%)=100×(A−B)/A
In contrast to startle reaction toward pulse stimulation, in the presence of preminary prepulse of 72 dB, startle reaction decreased by about 50% (prepulse inhibition). When pre-treating with methamphemine, strate reaction decreased only by about 20%, and decrease of prepulse inhibition was observed. Moreover, by administrating orally the compounds having mGluR1 antagonist effect 30 min before methamphetamine administration to the present models, decrease of prepulse inhibition by methamphetamine had tendance to recover.

Row | Structure (SMILES) | IC50 [2] | inhibition in vivo at 3 mg/kg [1] | Inhibition effect to PPI disorder [3]
1 | Cc1c(-c2ccc3c(c2)CN(C2CC2)C3=O)nnn1-c1cccnc1F [Example 49, 4-(2-cyclopropyl-1-oxo-isoindoline-5-yl)-1-(2-fluoropyridine-3-yl)-5-methyl-1H-[1,2,3]triazole] | 3.2 nM | > 50% | yes
2 | Cc1c(-c2ccc3c(=O)n(CC(C)(C)O)ccc3c2)nnn1-c1ccc(F)cc1 [Example 204, 4-(2-(2-hydroxy-2-methyl-propyl)-1-oxo-isoquinoline-6-yl)-1-(4-fluorophenyl)-5-methyl-1H-[1,2,3]triazole] | 3.4 nM | > 50% | yes
3 | Cc1c(-c2ccc3c(c2)CN(CC(C)(C)O)C3=O)nnn1-c1ccc(F)cc1 [Example 181, 4-(2-(2-hydroxy-2-methyl-propyl)-1-oxo-isoindoline-5-yl)-1-(4-fluorophenyl)-5-methyl-1H-[1,2,3]triazole] | 18 nM | > 50% | yes
4 | CCCN1Cc2cc(-c3nnn(-c4cccnc4F)c3C)ccc2C1=O [Example 85, 1-(2-fluoropyridine-3-yl)-5-methyl-4-(2-propyl-1-oxo-isoindoline-5-yl)-1H-[1,2,3]triazole] | 4.4 nM | > 50% | yes
5 | Cc1c(-c2ccc3nc(CC(C)(C)O)ccc3c2)nnn1-c1ccc(F)cc1 [Example 227] | 2.4 nM | > 50% | yes
6 | Cc1c(-c2ccc3c(c2)CN(C(C)C)C3=O)nnn1-c1ccc(F)cc1F [Example 119, 4-(2-isopropyl-1-oxo-isoindoline-5-yl)-1-(2,4-difluorophenyl)-5-methyl-1H-[1,2,3]triazole] | 4.3 nM | > 50% | yes
7 | Cc1c(-c2ccc3c(c2)CN(C2CC2)C3=O)nnn1-c1ccccc1F [Example 87, 4-(2-cyclopropyl-1-oxo-isoindoline-5-yl)-1-(2-fluorobenzene-3-yl)-5-methyl-1H-[1,2,3]triazole] | 4.3 nM | > 50% | yes

The remaining compounds from weak to strong by IC50 [2], led by results:

Row | IC50 [2] | Structure (SMILES) | inhibition in vivo at 3 mg/kg [1] | Inhibition effect to PPI disorder [3]
8 | 6.5 nM | Cc1c(-c2ccc3c(c2)CN(C(C)C)C3=O)nnn1-c1cccnc1F [Example 36, 4-(2-isopropyl-1-oxo-isoindoline-5-yl)-1-(2-fluoropyridine-3-yl)-5-methyl-1H-[1,2,3]triazole] | > 50% | yes
9 | 2.5 nM | Cc1c(-c2ccc3c(c2)CN(CC(F)F)C3=O)nnn1-c1ccc(F)cc1 [Example 151, 4-(2-(2,2-difluoroethyl)-1-oxo-isoindoline-5-yl)-1-(4-fluorophenyl)-5-methyl-1H-[1,2,3]triazole] | > 50% | yes
10 | 2.3 nM | Cc1c(-c2ccc3c(c2)CC2(CC2)C3=O)nnn1-c1cccnc1F [Example 34, 1-(2-fluoropyridine-3-yl)-5-methyl-4-(1-oxoindane-2-spiro-1′-cyclopropyl-5-yl)-1H-[1,2,3]triazole] | > 50% | yes
